Measurements reported in PubChem BioAssay AID850 (SRMLSC, 2007).
Active and inactive are the calls of the source. No rule for the calls is given here.

What was measured:
[1] = tested on: Saccharomyces cerevisiae growth inhibition, permissive control; assay: yeast lifespan-shortening chemical project counter-assay, dose-response inhibition of growth under permissive conditions (AID 850);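 also: growth read as optical density after one day of incubation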
[2] = as above; details: Saccharomyces cerevisiae growth inhibition, permissive control, measured here: maximum growth inhibition, stronger effect = higher value

c1cn2cc(-c3ccc4c(c3)OCO4)nc2s1
IC50 [1]: > 100 µM (inactive)
inhibition ([2]; at 50 µM): 27.3%

CCSc1nc2ccccc2n1S(=O)(=O)c1ccccc1
IC50 [1]: > 100 µM (inactive)
inhibition ([2]; at 3.125 µM): 26.4%

Cc1c(C=O)c2ccccn2c1C(=O)c1ccncc1
IC50 [1]: > 100 µM (inactive)
inhibition ([2]; at 50 µM): 10.7%

COc1ccc(-c2cc(C(=O)N3CCN(c4ncccn4)CC3)c3ccccc3n2)c(OC)c1
IC50 [1]: > 100 µM (inactive)
inhibition ([2]; at 12.5 µM): 23.4%

Fc1ccc(Br)cc1C1C=C(c2cccnc2)Nc2ncnn21 (stereo not given)
IC50 [1]: > 100 µM (inactive)
inhibition ([2]; at 50 µM): 26.3%

N#Cc1ccccc1NC(=O)c1ccc2c(Cl)c3c(nc2c1)CCCC3
IC50 [1]: > 100 µM (inactive)
inhibition ([2]; at 3.125 µM): 13.6%

Clc1ccc(CSC(Cn2ccnc2)c2ccc(Cl)cc2Cl)cc1 (stereo not given)
IC50 [1]: 0.365 µM
inhibition ([2]; at 50 µM): 99.4%

CCCCCCCOC(=O)C[N+](C)(C)CCOC1CC2CCC1(C)C2(C)C (stereo not given)
IC50 [1]: 29.2 µM
inhibition ([2]; at 50 µM): 99.4%

Cc1nc(N/N=C/c2ccccn2)sc1C
IC50 [1]: 25.8 µM
inhibition ([2]; at 50 µM): 99.8%

Cc1ccc2c(c1)c1c(n2C)-c2[nH]ncc2CC1
IC50 [1]: 38.2 µM
inhibition ([2]; at 50 µM): 71.1%

Fc1ccc2nc3[nH]c4ccccc4c3nc2c1
IC50 [1]: > 100 µM (inactive)
inhibition ([2]; at 50 µM): 20.7%

Cc1ccc(C)c(/C=C/C(=O)c2ccccc(=O)c2O)c1
IC50 [1]: 6.38 µM
inhibition ([2]; at 25 µM): 100%

S=C(NCC1CCCCC1)Nc1ccc(Oc2ccccc2)cc1
IC50 [1]: > 100 µM (inactive)
inhibition ([2]; at 0.781 µM): 7.72%

O=S(=O)(Cc1ccccc1)NCc1cccnc1
IC50 [1]: > 100 µM (inactive)
inhibition ([2]; at 12.5 µM): 28.2%

CCC(=O)NC(c1ccc(C)cc1)c1cc([N+](=O)[O-])c2cccnc2c1O (stereo not given)
IC50 [1]: 43.5 µM
inhibition ([2]; at 50 µM): 60.6%

O=C(CC(=O)c1ccccc1O)c1ccc(F)cc1
IC50 [1]: 30.1 µM
inhibition ([2]; at 25 µM): 37%

CCC1CCCCN1C(=O)CSc1nnc(-c2ccc(OC)cc2)o1 (stereo not given)
IC50 [1]: > 100 µM (inactive)
inhibition ([2]; at 12.5 µM): 24.1%

O=[N+]([O-])c1cc(/C=N/O)ccc1Sc1ccccc1
IC50 [1]: > 100 µM (inactive)
inhibition ([2]; at 50 µM): 7.13%

N#C/C(=N/O)c1nc(-c2ccc(F)cc2)cs1
IC50 [1]: 15.9 µM
inhibition ([2]; at 50 µM): 78.8%

C=C(C)COc1ccc(-c2[nH]ncc2Oc2cccc(OC)c2)c(O)c1
IC50 [1]: > 100 µM (inactive)
inhibition ([2]; at 12.5 µM): 20.1%

CCc1cccc(CC)c1NC(=S)NCc1ccc2[nH]c(C)cc2c1
IC50 [1]: > 100 µM (inactive)
inhibition ([2]; at 50 µM): 13.8%

Clc1ccc(COC(Cn2ccnc2)c2ccc(Cl)cc2Cl)c(Cl)c1 (stereo not given)
IC50 [1]: < 0.098 µM
inhibition ([2]; at 50 µM): 101%

CCOC(=O)c1c(-c2ccc(-c3ccccc3)cc2)csc1NC(=O)CCN1CCOCC1
IC50 [1]: 15.5 µM
inhibition ([2]; at 50 µM): 94.6%

Cn1c(C(=O)N2CCC(C(=O)N3CCN(Cc4ccc5c(c4)OCO5)CC3)CC2)cc2sccc21
IC50 [1]: > 100 µM (inactive)
inhibition ([2]; at 12.5 µM): 18%

Nc1nonc1C(=O)NCCN=Cc1cc(Cc2ccccc2)cc(Br)c1O
IC50 [1]: > 100 µM (inactive)
inhibition ([2]; at 50 µM): 22.4%

CC(C)C(=O)NC(c1ccccc1)c1cc([N+](=O)[O-])c2cccnc2c1O (stereo not given)
IC50 [1]: 29.6 µM
inhibition ([2]; at 50 µM): 93.4%

Cc1nn2c(-c3ccco3)nnc2c2ccccc12
IC50 [1]: > 100 µM (inactive)
inhibition ([2]; at 25 µM): 14.3%

COC1=C(N)C(=O)c2nc(-c3nc(C(=O)O)c(C)c(-c4ccc(OC)c(OC)c4O)c3N)ccc2C1=O
IC50 [1]: 0.463 µM
inhibition ([2]; at 50 µM): 98.7%

O=C(O)CCC(=O)N1CCN(c2nc(-c3ccccc3Cl)c3cc(Br)ccc3n2)CC1
IC50 [1]: 32 µM
inhibition ([2]; at 50 µM): 98.3%

COc1ccc(-c2cc3nc(C)cc(N4CC(C)CC(C)C4)n3n2)cc1 (stereo not given)
IC50 [1]: 50.7 µM
inhibition ([2]; at 50 µM): 48.3%

Cc1nc2c(F)c(F)c(C(F)(F)F)c(F)c2[nH]1
IC50 [1]: > 100 µM (inactive)
inhibition ([2]; at 0.391 µM): 17.4%

CC(=O)O/N=C/c1c(N2CCOCC2)n(C)c2ccccc12
IC50 [1]: 17.5 µM
inhibition ([2]; at 50 µM): 96.5%

O=C1c2ccccc2-c2nc3ccccc3nc21
IC50 [1]: > 100 µM (inactive)
inhibition ([2]; at 50 µM): 27.3%

CCCCCCc1ccc(-c2ncc(N)cn2)cc1
IC50 [1]: 22.9 µM
inhibition ([2]; at 50 µM): 99.2%

COc1ccc(/C=C/C(=O)c2cc(Br)ccc(=O)c2O)cc1
IC50 [1]: 16.1 µM
inhibition ([2]; at 50 µM): 93.6%

CCC(C)NC(=O)CS(=O)Cc1nc(-c2ccccc2C)oc1C (stereo not given)
IC50 [1]: > 100 µM (inactive)
inhibition ([2]; at 1.563 µM): 23.5%

CCS(=O)(=O)n1nc(-c2ccc(Cl)cc2)nc1SCc1ccccc1
IC50 [1]: > 100 µM (inactive)
inhibition ([2]; at 50 µM): 15%

O=C(Nc1nc(-c2ccccn2)cs1)c1ccc(Br)s1
IC50 [1]: 5.55 µM
inhibition ([2]; at 12.5 µM): 99.4%

COc1ccc(NCc2nc3ccccc3n2CCOc2ccc(C)cc2)cc1
IC50 [1]: 42.2 µM
inhibition ([2]; at 50 µM): 52.7%

Cc1ccc(/C=C2\C(=O)Nc3ccccc32)o1
IC50 [1]: > 100 µM (inactive)
inhibition ([2]; at 25 µM): 26.6%
